Data on 18 compounds can be found in patent publication US6090786A, “Serine proteases, their activity and their synthetic inhibitors” (priority 1994, dated 2000).

Counter-ions that a name gives are not always drawn. Like-named read-outs stand apart in the source and are kept apart here. No end group written: not given here. Some results are limits rather than exact numbers.

Series [1] deals with T1, purified prolyl oligopeptidase (Homo sapiens, UniProt P48147).
T1 construct: from tissue; host or cells: human blood cells: platelets or mononuclear cells, not specified
T1 sequence (P48147 1-710): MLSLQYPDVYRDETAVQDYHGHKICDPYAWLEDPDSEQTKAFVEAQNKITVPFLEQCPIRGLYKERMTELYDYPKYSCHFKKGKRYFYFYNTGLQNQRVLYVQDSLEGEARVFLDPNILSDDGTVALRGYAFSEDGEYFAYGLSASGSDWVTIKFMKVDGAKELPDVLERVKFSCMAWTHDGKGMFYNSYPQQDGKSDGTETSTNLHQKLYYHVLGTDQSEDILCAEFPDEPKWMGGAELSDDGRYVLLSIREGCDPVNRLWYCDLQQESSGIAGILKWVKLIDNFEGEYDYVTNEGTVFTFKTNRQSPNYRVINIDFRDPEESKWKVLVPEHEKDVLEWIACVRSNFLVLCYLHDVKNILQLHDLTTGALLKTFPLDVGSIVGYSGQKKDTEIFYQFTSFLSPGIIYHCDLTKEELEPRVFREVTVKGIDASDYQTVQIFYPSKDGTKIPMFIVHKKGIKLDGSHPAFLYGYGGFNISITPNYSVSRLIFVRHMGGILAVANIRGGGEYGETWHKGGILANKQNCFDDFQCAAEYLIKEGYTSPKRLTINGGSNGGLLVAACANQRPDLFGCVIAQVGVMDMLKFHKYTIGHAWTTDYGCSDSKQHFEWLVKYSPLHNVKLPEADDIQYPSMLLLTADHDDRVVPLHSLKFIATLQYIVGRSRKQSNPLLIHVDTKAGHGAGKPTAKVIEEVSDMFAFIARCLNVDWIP
Put plainly: biochemical. Here is the method:
(§1) The remaining activity was determined by adding 5 μl substrate (Z-Gly-Pro-AMC, 5.6 mM) and measurement of the fluorescence at λex 370 nm, λem 440 nm after a further 20 min incubation at 37° C. The inhibitors were dissolved in methanol and control experiments were performed to correct for the presence of the solvents used. The IC50 value was derived from a plot, joining the residual activity and the dosis of the respective compounds (at least eight concentrations tested). The Ki values were derived from a direct linear plot (Dixon-plot). The measurements were performed in triplicate and only those lines having a correlation coefficient of at least 0.95 were used for determination of the Ki value.
Several peptides (cfr. table) were incubated with purified prolyl oligopeptidase. The compounds were dissolved in H2 O. The IC50 value was determined as previously described apart from the preincubation which was deleted. […]

Series [2] can be described thus: Functional stability of DPPIV inhibitors in the reaction medium (buffer). Format: physicochemical. To be noted: 50 mM TRIS buffer pH 8.3, 37° C. Here is the method: (§2) To determine the functional stability of the inhibitors in the reaction medium, a 10 mM stock solution in DMSO was diluted 50-fold in 50 mM TRIS buffer pH 8.3 and incubated at 37° C. To determine the functional stability in plasma, a 50 mM stock solution in DMSO was diluted 50-fold in fresh or freshly frozen citrated plasma from a healthy donor and incubated at 37° C. At specific time intervals an aliquot was withdrawn, added to an equal volume of DPPIV diluted in buffer or to an equal volume of plasma and the kinetics of inactivation were determined as described under b). The reduction in observed pseudo-first order rate constant is a measure for the amount of functional inhibitor lost during the incubation and allowed to estimate the half-life of the inhibitors in buffer and plasma. The following table lists the results.

Series [3] can be described thus: Functional stability of DPPIV inhibitors in human citrated plasma. Format: in vitro ADME. As to conditions: 37° C. The method, then:
as §2

For series [4], the target named is T2, DPPIV (Homo sapiens, UniProt P27487).
T2 construct: from tissue; host or cells: prostasomes from human seminal plasma, purified on immobilized adenosine deaminase
Put plainly: biochemical. The series is classed as biochemical. The method, then:
(§3) All enzymatic reactions were carried out in 50 mM Tris.HCl buffer pH 8.3 at 37° C. with Gly-Pro-4-Me-2-naphtylamine.HCl as substrate. One activity unit is defined as the amount of enzyme which catalyzes the conversion of 1 micromole of substrate per minute at 37° C. All experiments were carried out with the same stock solution of DPPIV containing 1.8 units/ml. The enzyme was diluted (usually 1/200 or 1/500) in reaction buffer immediately before the experiment to a suitable concentration so as not to consume more that 10% of the substrate during the incubation period.
The remaining activity was determined by adding 5 microliter of a 1 mM solution of Gly-Pro-4-Me-2-naphtylamine.HCl. The reaction mixture containing enzyme, substrate and inhibitor was incubated for 20 min at 37° C. The reaction was stopped by addition of 0.5 ml 100 mM citrate pH 4.0. The fluorescence of the sample was measured within 2 h after quenching. The measurements were done in duplicate and corrected for background fluorescence using a blanc with exactly the same composition except that the citrate solution was added before the substrate.

For series [5], the target named is T2, DPPIV. Format: biochemical. As to conditions: inhibitor 0.1 or 0.5 mM, 37° C.; k+ = kobs/[I]o. The method, then: as §3
The kinetics of inactivation were measured by adding an appropriate concentration of inhibitor (0.1 or 0.5 mM) to 0.5 ml of enzyme in reaction buffer at 37° C. and determining the activity at various time points after mixing. To achieve this, 25 microliter samples were withdrawn and diluted […] in 2 mM Gly-Pro-4-Me-2-naphthylamine.HCl. The reaction was quenched with citrate after 10 to 15 min and the fluorescence was determined. The dilution in an excess of substrate reduced the velocity of inhibitor binding by a factor of 20. The decrease in fluorescence with time was fitted with the equation of a monoexponential decay yielding the pseudo-first order rate constant for binding (kobs) in the exponent. The second order rate constant (k+) was calculated as follows: k+ =kobs /[I]o where [I]o is the concentration of inhibitor in the incubation mixture.

Series [6] has as its target T3, purified human platelet prolyl oligopeptidase (Homo sapiens, UniProt P48147).
T3 construct: purified human platelet prolyl oligopeptidase; from tissue; host or cells: human thrombocytes (platelets)
T3 sequence (P48147 1-710): T1 sequence (P48147 1-710)
Briefly: In vitro inhibition of PEP. Format: biochemical. As to conditions: for IC50: 20 min preincubation at 37° C., substrate Z-Gly-Pro-AMC; for Ki: Dixon-plot. The method, then:
as §1

Series [7] has as its target T2, DPPIV. Briefly: Stability of the inhibitor-DPPIV adduct. Format: biochemical. To be noted: DPPIV incubated with 0.5 mM inhibitor 1 hour, excess removed by gel filtration. Here is the method: The phosphorylated enzyme is expected to hydrolyze slowly by action of solvent or nucleophilic groups on the enzyme.
The stability of the adduct was determined as follows. […] Excess inhibitor was removed by gel filtration on a PD 10 column (Pharmacia Biotech, Uppsala, Sweden) previously equilibrated with 50 mM Tris.HCl buffer, pH 8.3.
On the technique in general: Size exclusion chromatography separates by hydrodynamic size, large species first.

Where [8] appears, read: peptides dissolved in H2O, no preincubation, read-out: IC50.
Where [9] appears, read: 1 hour preincubation at room temperature, substrate Gly-Pro-4-Me-2-naphtylamine.HCl, Tris.HCl pH 8.3, 37° C., inhibitory diastereoisomer unless marked *, read-out: IC50.

T2 sequence (P27487 whole entry): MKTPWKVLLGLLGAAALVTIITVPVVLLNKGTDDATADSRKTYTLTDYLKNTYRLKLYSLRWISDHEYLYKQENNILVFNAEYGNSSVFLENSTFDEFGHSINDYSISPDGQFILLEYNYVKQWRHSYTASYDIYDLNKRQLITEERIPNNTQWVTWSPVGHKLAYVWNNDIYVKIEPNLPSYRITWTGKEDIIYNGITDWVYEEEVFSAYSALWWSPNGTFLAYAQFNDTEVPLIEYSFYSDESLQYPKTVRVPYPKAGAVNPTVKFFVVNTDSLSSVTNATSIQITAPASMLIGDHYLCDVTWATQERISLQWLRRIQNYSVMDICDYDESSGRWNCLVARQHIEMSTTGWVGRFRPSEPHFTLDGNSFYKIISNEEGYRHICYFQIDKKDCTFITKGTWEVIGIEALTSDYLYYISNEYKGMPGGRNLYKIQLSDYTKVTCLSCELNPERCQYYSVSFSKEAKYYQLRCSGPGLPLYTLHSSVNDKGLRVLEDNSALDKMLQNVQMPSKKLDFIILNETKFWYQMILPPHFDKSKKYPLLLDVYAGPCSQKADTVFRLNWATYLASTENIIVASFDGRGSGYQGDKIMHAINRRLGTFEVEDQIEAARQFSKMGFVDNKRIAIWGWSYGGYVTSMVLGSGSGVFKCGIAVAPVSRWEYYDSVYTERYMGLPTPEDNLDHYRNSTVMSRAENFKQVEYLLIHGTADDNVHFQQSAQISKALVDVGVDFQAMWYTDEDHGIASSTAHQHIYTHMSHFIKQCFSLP

The IC50 is the concentration that gives 50% inhibition. Turning to `CSCC[C@H](NC(=O)[C@H](CC(C)C)NC(=O)CNC(=O)[C@H](Cc1ccccc1)NC(=O)[C@H](Cc1ccccc1)NC(=O)[C@H](CCC(N)=O)NC(=O)[C@H](CCC(N)=O)NC(=O)[C@@H]1CCCN1C(=O)[C@H](CCCCN)NC(=O)[C@@H]1CCCN1C(=O)[C@@H](N)CCCN=C(N)N)C(N)=O` [Substance P], in series [1], the half-inhibitory concentration (IC50) came out at 163 µM.
Turning to `CC[C@H](C)[C@H](NC(=O)[C@H](Cc1ccc(O)cc1)NC(=O)[C@@H](NC(=O)[C@H](CCCNC(=N)N)NC(=O)[C@@H](N)CC(=O)O)C(C)C)C(=O)N[C@@H](Cc1c[nH]cn1)C(=O)N1CCC[C@H]1C(=O)O` [Angiotensin (1-7)], in series [1] (setting [8]), the IC50 is 750 µM.
Compound `N[C@@H](CC1CCCCC1)C(=O)N1CCC[C@H]1P(=O)(Oc1ccccc1)Oc1ccccc1` [Cyclohexylalanine-Pro^P -(OPh)2, Diphenyl (R)-1-[(S)-cyclohexylalanyl]pyrrolidine-2-phosphonate hydrochloride] registered a t1/2 in buffer in series [2] of 4.5 ± 0.8 h. Moreover, in series [3], the t1/2 in plasma was found to be 18 ± 6 min.
On to `CC(C)(C)Oc1ccc(C[C@H](N)C(=O)N2CCCC2P(=O)(Oc2ccccc2)Oc2ccccc2)cc1` (stereo partly drawn) [O-tbutyl-Tyr-Pro^P -(OPh)2], for which, in series [4] (setting [9]), the half-maximal inhibitory concentration (IC50) came to 1000 µM. Further, the “K+ (second order rate constant)” value in series [5] was 0.5 M⁻¹ s⁻¹.
Broadly, the Ki is a dissociation constant, usually derived from enzyme kinetics or from competition with a known ligand. Lower therefore signals a stronger hold on the target. With `O=C([C@@H]1CCCN1C(=O)OCc1ccccc1)N1CCC(F)C1` (stereo partly drawn) [Z-Pro-3-fluoropyrrolidine, 1-[N-Benzyloxycarbonyl-L-propyl]-3(R,S)-fluoropyrrolidine], in series [6], the “inhibitory activity on PEP (in words)” value is “particularly active inhibitor”, the IC50 was found to be 450 nM and the affinity corresponds to a Ki of 100 nM.
In the case of RPPGFSPFR [Bradykinin], half-maximal inhibition in series [1] (IC50) required 7 µM.
As for `CC[C@H](C)[C@H](N)C(=O)N1CCC[C@H]1P(=O)(Oc1ccccc1)Oc1ccccc1.Cl` [(S)-Ile-(R)-Pro^P (OPh)2, Diphenyl (R)-1-[(S)-isoleucinyl]pyrrolidine-2-phosphonate hydochloride], the t1/2 in buffer in series [2] stood at 10 ± 5 h. Moreover, the t1/2 in plasma in series [3] came out at 84 ± 54 min.
`O=C(NC(Cc1ccccc1)C(=O)N1CCC1)OCc1ccccc1` (stereo not drawn) [Z-Phe-azetidine] yielded an IC50 in series [6] of 30000 nM.
On to `CC[C@H](C)[C@H](NC(=O)[C@H](Cc1ccc(O)cc1)NC(=O)[C@@H](NC(=O)[C@H](CCCNC(=N)N)NC(=O)[C@@H](N)CC(=O)O)C(C)C)C(=O)N[C@@H](Cc1cnc[nH]1)C(=O)N1CCC[C@H]1C(=O)N[C@@H](Cc1ccccc1)C(=O)O` [Angiotensin II], for which, in series [1] (setting [8]), the half-inhibitory concentration (IC50) turned out to be 25 µM.
For the compound `Cl.N[C@@H](Cc1ccc(F)cc1)C(=O)N1CCC[C@H]1P(=O)(Oc1ccccc1)Oc1ccccc1` [pF-Phe-Pro^P -(OPh)2, Diphenyl (R)-1-[(S)-p-fluorophenylalanyl]pyrrolidine-2-phosphonate hydrochloride], the t1/2 in buffer in series [2] stood at 8.9 ± 0.1 h. For the same compound, the 50% inhibitory concentration (IC50) in series [4] came out at 100 µM. The compound further came in with a t1/2 in plasma in series [3] of 42 ± 6 min. Further, the “stability of the adduct at room temperature” value (“stability of the adduct” for short) in series [7] is > 4 weeks.
On to `CC[C@H](C)[C@H](N)C(=O)N1CCCC1P(=O)(Oc1ccccc1)Oc1ccccc1.Cl` (stereo partly drawn) [Ile-Pro-^P -(OPh)2, Diphenyl (S,R)-1-[(S)-isoleucinyl]pyrrolidine-2-phosphonate hydochloride], for which the IC50 in series [4] (setting [9]) was found to be 350 µM. Also, the “K+ (second order rate constant)” value in series [5] was 2.3 M⁻¹ s⁻¹. In series [7], the “stability of the adduct” value was > 3 weeks.
Regarding `Cl.N[C@@H](Cc1ccccc1)C(=O)N1CCC[C@@H]1P(=O)(Oc1ccccc1)Oc1ccccc1` [AB22, Diphenyl (S)-1-[(S)-phenaylalyl]pyrrolidine-2-phosphonate hydrochloride], the “inhibitory activity on DPPIV (in words)” value in series [4] is “inactive”.
`Cl.N[C@@H](Cc1ccccc1)C(=O)N1CCC[C@H]1P(=O)(Oc1ccccc1)Oc1ccccc1` [Phe-Pro^P -(OPh)2, Diphenyl (R)-1-[(S)-phenylalanyl]pyrrolidine-2-phosphonate hydrochloride] yielded a t1/2 in buffer in series [2] of 6 ± 1 h. In series [4], this compound registered a 50% inhibitory concentration (IC50) of 70 µM. In addition, the t1/2 in plasma in series [3] worked out at 42 ± 6 min. For the same compound, the “stability of the adduct” value in series [7] is listed as > 3 weeks.
In series [6], `O=C(C1CSCN1C(=O)OCc1ccccc1)N1CCC1` (stereo not drawn) [Z-thiopro-azetidine] displayed an IC50 of 1800 nM and a Ki of 5000 nM.
In series [6], `O=C(C1CCCN1C(=O)OCc1ccccc1)N1CCC1` (stereo not drawn) [Z-Pro-azetidine] had an IC50 of 3000 nM and an inhibition constant (Ki) of 2500 nM.
Consider `CC[C@H](C)[C@H](N)C(=O)N1CCC(F)C1.O=C(O)C(F)(F)F` (mixture of isomers) [Ile-3-Fluoro-pyrrolidine, 1-(L-Isoleucyl)-3(R,S)-fluoropyrrolidine trifluoroacetate], for which, in series [4], the “inhibitory activity on DPPIV (in words)” value was “particularly active inhibitor”.
With `Cl.Cl.N=C(N)NCCC[C@H](N)C(=O)N1CCCC1P(=O)(Oc1ccccc1)Oc1ccccc1` (stereo partly drawn) [(S)-Arg-(S,R)-Pro^P (OPh)2, Diphenyl (S,R)-1-[(S)-arginyl]pyrrolidine-2-phosphonate dihydrochloride], in series [2], the t1/2 in buffer is 2.6 ± 0.3 h. In series [3], this compound gave a t1/2 in plasma of 114 ± 12 min.
As for `C[C@H](N)C(=O)N1CCCC1P(=O)(Oc1ccccc1)Oc1ccccc1.Cl` (stereo partly drawn) [Ala-Pro-(OPh)2, Diphenyl (S,R)-1-[(S)-alanyl]pyrrolidine-2-phosphonate hydrochloride], in series [4] (setting [9]), the IC50 amounted to 2000 µM. The “K+ (second order rate constant)” value in series [5] is 0.7 M⁻¹ s⁻¹. The “stability of the adduct” value in series [7] is recorded as > 4 weeks.
